Test results reported in ChEMBL document CHEMBL5120927, “LEGO-Lipophosphonoxins: A Novel Approach in Designing Membrane Targeting Antimicrobials” (J Med Chem, 2022).

Legend:
Enterococcus faecalis = assay: Antibacterial activity against Enterococcus faecalis ATCC 29212 = CCM 4224 assessed as inhibition of bacterial growth incubated for 24 hrs by microdilution assay; format: functional
Staphylococcus aureus [1] = assay: Antibacterial activity against Staphylococcus aureus ATCC 29213 = CCM 4223 assessed as inhibition of bacterial growth incubated for 24 hrs by microdilution assay; format: functional
Staphylococcus aureus [2] = assay: Antibacterial activity against Staphylococcus aureus ATCC 29213 = CCM 4223 assessed as inhibition of bacterial growth incubated for 24 hrs in presence of BSA by microdilution assay; format: functional
Escherichia coli [3] = assay: Antibacterial activity against Escherichia coli ATCC 25922 = CCM 3954 assessed as inhibition of bacterial growth incubated for 24 hrs by microdilution assay; format: functional
Escherichia coli [4] = assay: Antibacterial activity against Escherichia coli ATCC 25922 = CCM 3954 assessed as inhibition of bacterial growth incubated for 24 hrs in presence of BSA by microdilution assay; format: functional
Pseudomonas aeruginosa [5] = assay: Antibacterial activity against Pseudomonas aeruginosa ATCC 27853 = CCM 3955 assessed as inhibition of bacterial growth incubated for 24 hrs by microdilution assay; format: functional
[6] = Hemolytic activity in human RBC assessed as haemoglobin release measured after 3 hr; format: toxicity, cell-based, Erythrocyte; details: red blood cells (erythrocytes)
[7] = Gradient chromatographic hydrophobicity index of the compound at pH 3.7 by HPLC analysis; format: ADME
[8] = tested on: Staphylococcus epidermidis; assay: Antibacterial activity against Staphylococcus epidermidis CCM 7221 assessed as inhibition of bacterial growth incubated for 24 hrs by microdilution assay; format: functional
Staphylococcus aureus [9] = assay: Antibacterial activity against methicillin resistant Staphylococcus aureus 4591/A assessed as reduction in microbial growth incubated for 24 hrs by microdilution assay; format: functional
Escherichia coli [10] = assay: Antibacterial activity against multidrug-resistant Escherichia coli CE5556 expressing CTX-M-15 assessed as reduction in microbial growth incubated for 24 hrs by microdilution assay; format: functional
Enterococcus faecium = assay: Antibacterial activity against vancomycin resistant Enterococcus faecium 419/ANA assessed as reduction in microbial growth incubated for 24 hrs by microdilution assay; format: functional
Pseudomonas aeruginosa [11] = assay: Antibacterial activity against multidrug-resistant Pseudomonas aeruginosa assessed as reduction in microbial growth incubated for 24 hrs by microdilution assay; format: functional

Compound | MIC (Enterococcus faecalis) [µg/mL] | MIC (Staphylococcus aureus [1]) [µg/mL] | MIC (Staphylococcus aureus [2]) [µg/mL] | MIC (Escherichia coli [3]) [µg/mL] | MIC (Escherichia coli [4]) [µg/mL] | MIC (Pseudomonas aeruginosa [5]) [µg/mL] | HC50 at 3 h [6] [µg/mL] | CHI [7] | MIC [8] [µg/mL] | MIC (Staphylococcus aureus [9]) [µg/mL] | MIC (Escherichia coli [10]) [µg/mL] | MIC (Enterococcus faecium) [µg/mL] | MIC (Pseudomonas aeruginosa [11]) [µg/mL]
Cl.Cl.Cl.Cl.Cl.Cl.NCCCN(CCCN)CCP(=O)(OCCCCCCOP(=O)(CCN(CCCN)CCCN)OCCC12CC3CC(CC(C3)C1)C2)OCCC12CC3CC(CC(C3)C1)C2 (configuration not stated) | 1 | 0.5 | 0.2 | > 128 | 1 | 1 | 72.2 | 38.4 | 0.5 | 0.5 | 1 | 2 | 2
CC/C=C\CCCOP(=O)(CCN(CCCN)CCCN)OCCCCCOP(=O)(CCN(CCCN)CCCN)OCCC/C=C\CC.Cl.Cl.Cl.Cl.Cl.Cl (configuration not stated) | > 128 | 16 | 64 | 128 | > 128 | > 128 | > 200 | 27.7 | 8 | 32 | > 128 | > 128 | > 128
Cl.Cl.Cl.Cl.Cl.Cl.NCCCN(CCCN)CCP(=O)(OCCCCCCOP(=O)(CCN(CCCN)CCCN)OCCc1ccccc1)OCCc1ccccc1 (configuration not stated) | > 128 | 64 | > 128 | > 128 | > 128 | > 128 | > 200 | 11.9 | 64 | 64 | > 128 | > 128 | > 128
Cl.Cl.Cl.Cl.Cl.Cl.NCCCN(CCCN)CCP(=O)(OCCCCCCCOP(=O)(CCN(CCCN)CCCN)OCCCC(F)(F)F)OCCCC(F)(F)F (configuration not stated) | > 128 | > 128 | > 128 | 128 | > 128 | > 128 | > 200 | 24.6 | 128 | > 128 | > 128 | > 128 | > 128
Cl.Cl.Cl.Cl.Cl.Cl.NCCCN(CCCN)CCP(=O)(OCCCCCCCCCCCCOP(=O)(CCN(CCCN)CCCN)OCCc1ccccc1)OCCc1ccccc1 (configuration not stated) | 4 | 1 | 2 | 4 | 8 | 8 | 358 | 34.8 | 0.5 | 4 | 16 | 32 | 8
CCCCCOP(=O)(CCN(CCCN)CCCN)OCCCCCCCCOP(=O)(CCN(CCCN)CCCN)OCCCCC.Cl.Cl.Cl.Cl.Cl.Cl (configuration not stated) | > 128 | 16 | 32 | > 128 | > 128 | > 128 | > 100 | 27.5 | 4 | 8 | > 128 | > 128 | 128
CCC/C=C\CCOP(=O)(CCN(CCCNC(=N)N)CCCNC(=N)N)OCCCCCCOP(=O)(CCN(CCCNC(=N)N)CCCNC(=N)N)OCC/C=C\CCC.Cl.Cl.Cl.Cl.Cl.Cl (configuration not stated) | 64 | 2 | 2 | 2 | 2 | 64 | > 500 | 29.7 | 2 | 2 | 2 | > 128 | 64
CCCCC/C=C\CCOP(=O)(CCN(CCCN)CCCN)OCCCOP(=O)(CCN(CCCN)CCCN)OCC/C=C\CCCCC.Cl.Cl.Cl.Cl.Cl.Cl (configuration not stated) | 8 | 2 | 4 | 2 | 4 | 8 | > 500 | 36.2 | 2 | 2 | 4 | 64 | 4
Cl.Cl.Cl.Cl.Cl.Cl.N=C(N)NCCCN(CCCNC(=N)N)CCP(=O)(OCCCCCCCOP(=O)(CCN(CCCNC(=N)N)CCCNC(=N)N)OCCCC(F)(F)F)OCCCC(F)(F)F (configuration not stated) | > 128 | 8 | 16 | 1 | 128 | > 128 | > 200 | 25.2 | 8 | 8 | 128 | > 128 | > 128
Cl.Cl.Cl.Cl.Cl.Cl.NCCCN(CCCN)CCP(=O)(OCCCCCCCCOP(=O)(CCN(CCCN)CCCN)OCCc1ccccc1)OCCc1ccccc1 (configuration not stated) | 128 | 16 | 32 | 128 | 128 | 128 | > 200 | 27.3 | 8 | 16 | 128 | 128 | 128
CCCCCCOP(=O)(CCN(CCN)CCN)OCCCCCCCCOP(=O)(CCN(CCN)CCN)OCCCCCC.Cl.Cl.Cl.Cl.Cl.Cl (configuration not stated) | 16 | 2 | 1 | 8 | 16 | 32 | 231 | 38.6 | 2 | 2 | 64 | 128 | 64
CCCCCCOP(=O)(CCN(CCCN)CCCN)OCCCCCCOP(=O)(CCN(CCCN)CCCN)OCCCCCC.Cl.Cl.Cl.Cl.Cl.Cl (configuration not stated) | > 128 | 8 | 16 | 32 | 64 | > 128 | 634 | 28.7 | 4 | 16 | 128 | > 128 | > 128
CC/C=C\CCCOP(=O)(CCN(CCCN)CCCN)OCCCOP(=O)(CCN(CCCN)CCCN)OCCC/C=C\CC.Cl.Cl.Cl.Cl.Cl.Cl (configuration not stated) | > 128 | 128 | > 128 | > 128 | > 128 | > 128 | > 200 | 25.1 | 32 | 64 | > 128 | > 128 | > 128
Cl.Cl.Cl.Cl.Cl.Cl.NCCCN(CCCN)CCP(=O)(OCCCCCCOP(=O)(CCN(CCCN)CCCN)OCC1CCCC1)OCC1CCCC1 (configuration not stated) | > 128 | 128 | > 128 | > 128 | > 128 | > 128 | > 1000 | 14.8 | 64 | 128 | > 128 | > 128 | > 128
